# Measured values: patent publication US7425548B2, “Materials and methods for immune system stimulation” (Variety Chidren's Hospital, priority 2004, dated 2008)
# How the values were obtained:
# RAW 264.7 cells = assay: RR1-induced TNF-α synthesis with and without CAPE, ELISA; assay type: cell-based, mouse; settings: CAPE 10 μg/ml for 1 hour prior to RR1, all RR1 concentrations
# Method: The cells were pre-incubated with 10 μg/ml CAPE for 1 hour in 0.5% FBS containing DMEM medium and replaced with medium containing RR1 at varying concentrations for 4 hour at 37° C. The medium was analyzed for secreted TNF-α using ELISA protocol.
# RR1-induced TNF-α synthesis. RAW 264.7 cells (0.5×10^6/ml) were plated on 6-well plates with DMEM medium containing 0.5% FBS (starvation). Once the cells were attached, medium was replaced, RR1 was added at 0, 100, 500 and 1000 μg/ml doses and incubated at 37° C. for 24 hours. The medium was analyzed for the secreted TNF-α using the ELISA kit (BD BIOSCIENCES kit, San Jose, Calif.) based on the manufacturer's protocol.
# To determine the effect of NF-κB inhibitor CAPE on TNF-α synthesis, RAW 264.7 cells were treated with 10 μg/ml of CAPE for 1 hour at 37° C. followed by treatment with RR1 (0-1000 μg/ml) overnight in the incubator. The secreted TNF-α in the medium was analyzed using ELISA (BD BIOSCIENCES, San Jose, Calif.).
# RAW264.7 macrophages = assay: Opsonized binding and phagocytosis of FITC-zymosan A bioparticles; assay type: cell-based, mouse; settings: 37° C.
# Method: Monocytes were incubated with RR1 at 37° C. for 1 hour followed by FITC-labeled zymosan A bioparticles for another 1 hour at 37° C. The cells were washed and intracellular fluorescence measured in a Coulter Elite Flow cytometer.
# Opsonized binding and Phagocytosis. To determine the effect of RR1 and laminarin on opsonized binding and phagocytosis of zymosan A particles, RAW 264.7 cells were treated with RR1 or laminarin (0 and 500 μg/ml) in DMEM at 37° C. for 1 hour. This will ensure the release of opsonins and facilitate opsonic binding. The cells were washed with PBS twice and incubated with zymosan A-FITC bioparticles at a ratio of 25 particles/cell at 37° C. for 1 hour. The cells were suspended in PBS after removing the unbound zymosan particles by extensive washing with the medium, and the intracellular fluorescence analyzed in a Coulter Elite flow cytometer. The fluorescence intensity was expressed as percentage of control.
"inhibitory effect on opsonized binding and phagocytosis of zymosan A bioparticles (RAW264.7 macrophages; 500 μg/ml, 1 hour)",inhibition of zymosan bioparticle internalization (RAW264.7 macrophages; opsonized),Molecule,effect on RR1-induced TNF-α synthesis (RAW 264.7 cells)
–,–,"O=C(/C=C/c1ccc(O)c(O)c1)OCCc1ccccc1 [CAPE, caffeic acid phenethyl ester, reference compound]",completely inhibited
absolute inhibitory effect,about 90%,Laminarin [reference compound],–
